The numbers were not newly measured in patent EP1935412A2, “Pharmaceutical composition containing 5-chloro-1-[1-[3-(2-oxo-2,3-dihydro-1H-benzimidazol-1-yl)propyl]piperidine-4-yl]-1,3-dihydro-2H-benzimidazol-2-one and method of preparing same” (GALENIX DEVELOPPEMENT, priority 2006, dated 2008), which cites them from elsewhere.

For the data set the following is noted: dans l'eau.

In the case of `O=c1[nH]c2ccccc2n1CCCN1CCC(n2c(=O)[nH]c3cc(Cl)ccc32)CC1` [dompéridone, 5-chloro-1-[1-[3-(2-oxo-2,3-dihydro-1H-benzimidazol-1-yl)propyl]pipéridin-4-yl]-1,3-dihydro-2H-benzimidazol-2-one], the Solubility in water entry is “pratiquement insoluble dans l'eau”.
